Consider 10 compounds from patent EP0263213B1, “C20 Through C26 amino steroids” (THE UPJOHN COMPANY, priority 1986, dated 1988).

One test has as its system chick embryo. The test can be described thus: fertile egg or chick embryo assay of Folkman (angiogenesis). It is filed as in vivo. The conditions noted are these: 50 »g/10 »l in the presence of heparin. The text has this:
According to this procedure compounds which are considered to be "active" (i.e. antiangiogenic) give an avascular zone of 4 mm or greater in some embryos when tested at 50 »g/10 »l in the presence of 50 »g/10 » of heparin.

A further test relates to arachidonic acid. The test can be described thus: Arachidonic Acid Antagonism Assay (AAAA). It counts as in vivo. The conditions noted are these: male CF-1 mice. As for the experimental part: Since these metabolites contribute to the pathological problems associated with stroke, spinal trauma and head injury, compounds which antagonize arachidonic acid are useful in treating stroke, spinal trauma and head injury.
While not necessary to determine arachidonic acid antagonism, the above assay has been modified as follows: Charles River male CF-1 mice weighing 18-22g are treated IV with the test compound dissolved in 1.0% Tween-80 and 0.1% hydrochloric acid in distilled water, 0.2 ml total volume. Fifteen minutes later sodium arachidonate (90% pure) in physiological (normal) saline is injected into the tail vein. The LD₅₀ is measured using the Spearman-Karber method with a log dose interval of 0.05 (N=6). Compounds which elevate the LD₅₀ outside of the 95% confidence interval of the control LD₅₀ are considered to be "active".

Test [1] relates to rat brain synaptosomes. The test can be described thus: Conjugated Diene Formation Assay. It is filed as biochemical. Particulars: active = inhibits conjugated diene formation by 50% or more; 100 »M (or less) of drug, 100 »M hydrogen peroxide, 200 »M ferrous ammonium sulfate. An excerpt:
The formation of conjugated dienes as assayed by Braughler, J. Neurochem., 44, 1282 (1985), Bucher, Fund. Applied Tox., 3, 222 (1983) and Tein, Arch. Biochem. Biophy., 216, 142 (1982) is a standard pharmacological laboratory procedure useful for identifying compounds which inhibit lipid peroxidation. Since lipid peroxidation is involved in the pathophysiology of central nervous system trauma, compounds which inhibit conjugated diene formation are useful in treating the conditions listed below.
44, 1282 (1985). Synaptosomal suspension (10 »l) is added to 1 ml of physiological (normal) saline containing 1 % Lubrol PX (Sigma Chemical Co. St. Louis, Mo.), 100 »M hydrogen peroxide and 100 »M (or less) of the drug to be tested prepared in either absolute ethanol or water depending upon solubility. The reaction is started by the rapid addition of 200 »M ferrous ammonium sulfate is prepared in argon-purged water. The sample is rapidly mixed and the change in absorbance at 232nm is followied in a Gilford Response Spectrophotometer equipped with a rapid sampler. Due to the rapidity of the reaction, rapid addition of the iron, rapid mixing and sampling are obligatory to the accuracy of the assay. For best results absorbance readings of one/sec should be started within 5 sec following the addition of iron. The initial linear rate of absorbance change during the first 30 sec of reaction are compared with the rate of a reaction containing all reagents except synaptosomes. The difference in rates is the rate of conjugated diene formation. Rates with drug are compared to rates obtained in the absence of drug and the % inhibition is calculated. A compound that inhibits conjugated diene formation by 50% or more is considered to be "active".

For the next test, the system named is mucous secretion. Kind of test: inhibition of mucous secretion assay of Johnson. Particulars: active = inhibits or blocks enhancement of induced mucous secretions. An excerpt: The inhibition of mucous secretion assay of Johnson Int. […] According to this procedure compounds which inhibit or block enhancement of induced mucous secretions when tested are considered to be "active".

For the next test, the system named is SEA Japanese Quail. Kind of test: Antiatherosclerosis Screen in SEA Japanese Quail. It counts as in vivo. The conditions noted are these: quail fed an atherogenic diet; active = decrease of serum or arterial cholesterol > 30 %.
The next test relates to ACAT. The test can be described thus: AcylCoA:Cholesterol Acyltransferase (ACAT) Inhibition Assay. The conditions noted are these: for inhibiting ACAT: active = inhibits ACAT activity equal to, or greater than, that of chlorpromazine. It is filed as cell-based. The text has this:
ACAT esterifies arterial cholesterol which is a key reaction in the development of atherosclerosis. The procedure of Bell, Can. […] In the ACAT assay it is preferred to use Fu5AH cells, see Lipids 9, 526 (1974). According to this procedure, compounds which inhibit ACAT activity equal to, or greater than, that of chlorpromazine are considered "active".

Test [2] relates to aspirin/cold induced ulcer. Kind of test: aspirin/cold induced ulcer assay of Rainsford. It counts as in vivo. Particulars: active = 50% or more reduction of ulcer index. The text has this: According to this procedure compounds which give a 50% or more reduction of ulcer index are considered to be "active".
Test [3] has as its system rat brain synaptosomes. Kind of test: Malonyldialdehyde (MDA) Formation Assay. It is filed as biochemical. Particulars: active = inhibits MDA formation by 50% or more at 200»M or less; 10 min at 37°, pH 7.0, 150 uM Fe+++ and 50 uM Fe++. Here is the method: Since lipid peroxidation is involved in the pathophysiology of central nervous system trauma, compounds which inhibit MDA formation are useful in treating the conditions listed below.
While not necessary to determine MDA formation, the above assays have been modified as follows: rat brain synaptosomes are prepared as described in the Example about the conjugated diene assay, except that the final wash of the synaptosomes and final suspension are in physiological (normal) saline in which the pH has been adjusted to 7.0. The synaptosomes are incubated for 10 min at 37° in physiological (normal) saline pH 7.0 (total volume = 100 ul) containing; 10 ul synaptosomal suspension, 10% DMSO plus or minus drug, 150 uM Fe⁺⁺⁺ and 50 uM Fe++. The incubation is started by the rapid addition of iron to the otherwise complete reaction. The iron solutions are prepared fresh as ferric chloride and ferrous ammonium sulfate in argon-purged water. Following the 10 min incubation, the reaction is stopped by the addition of 500 ul ice-cold 12% trichloroacetic acid prepared in 0.5 N hydrochoric acid. Water (300 ul) is then added along with 100 ul of freshly prepared thiobarbituric acid (3.3% in 0.5N sodium hydroxide) and 10 ul of 5mM desferrioxamine. The sample is then heated in a boiling water bath for 20 minutes. The samples are cooled and centrifuged for 15 minutes at 1500 xg and the absorbance of the supernatant fraction is read at 532 nm. The % inhibition of MDA formation is calculated by dividing the absorbance of sample containing drug by the absorbance of samples incubated without drug. Reaction blanks are samples incubated in the absence of iron. A compound that inhibits MDA formation by 50% or more at a concentration of 200»M or less is considered "active".

The next test relates to mouse head injury. The test can be described thus: in vivo mouse head injury procedure of Hall (1 hr post-injury grip test). Particulars: 1 hr after head injury, statistically significant (p < 0.05).
A further test relates to interleukin-1. Kind of test: inhibition of interleukin-1 induced T cell proliferation assay. It counts as cell-based. The conditions noted are these: for % Inhibition at 10⁻⁶ M: interleukin-1 induced T cell proliferation. The text has this:
The inhibition of interleukin-1 induced T cell proliferation assay, Proc. Nat. […] Since people with arthritis make excess interleukin 1, compounds which inhibit the activity of interleukin 1 are useful in the treatment of arthritis. According to this procedure compounds which inhibit the activity of interleukin 1 greater that 30% at 10⁻⁶ M are considered to be "active".

Regarding “11α,17α-Dihydroxy-21-[4-(2-pyridinyl)-1-piperazinyl]pregn-4-ene-3,20-dione 11-(3,3-dimethyl-1-butyrate dihydrochloride [Example 28]”, the “% of Embryos with 4 mm or Greater Avascular Zone” value in the test on chick embryo came to 73%.

As for `CS(=O)(=O)O.C[C@]12CCC(=O)C=C1CC[C@@H]1C2=CC[C@@]2(C)[C@H]1CC[C@]2(O)C(=O)CN1CCN(c2ccccn2)CC1` [Example 2, 17α-Hydroxy-21-[4-(2-pyridinyl)-1-piperazinyl]pregna-4,9(11)-diene-3,20-dione methanesulfonate], the arachidonic acid antagonism entry in the test on arachidonic acid (active = elevates the LD50 of sodium arachidonate outside the 95% confidence interval of the control LD50, test compound IV 15 minutes before) is “demonstrate arachidonic acid antagonism”. In addition, the “inhibition of conjugated diene formation” value with rat brain synaptosomes [1] is listed as “demonstrate such activity by inhibition of conjugated dienes”. Besides, the “inhibition of mucous secretion” value in the test on mucous secretion (methanesulfonate) is listed as “preferred mucous inhibitors”.

Regarding `C[C@]12CCC(=O)C=C1CC[C@@H]1C2=CC[C@@]2(C)[C@H]1CC[C@]2(O)C(=O)CN1CCN(c2ccccn2)CC1.Cl` [Example 3, 17α-Hydroxy-21-[4-(2-pyridinyl)-1-piperazinyl]pregna-4,9(11)-diene-3,20-dione hydrogen chloride salt], in the test with SEA Japanese Quail, the “reduction of serum and arterial cholesterol” value is “demonstrates reduction of serum and arterial cholesterol”. Besides, in the test on ACAT, the “% Inhibition of ACAT (5 »g/ml)” value worked out at 63.9% and the “inhibiting ACAT” value is reported as “active in inhibiting ACAT”.

On to `CN(C)c1cc(N2CCN(CC(=O)[C@@]3(O)CC[C@H]4[C@@H]5CCC6=CC(=O)CC[C@]6(C)C5=CC[C@@]43C)CC2)nc(N(C)C)n1.Cl.Cl.O` [Example 16, 17α-Hydroxy-21-[4-[2,6-bis(dimethylamino)-4-pyrimidinyl]-1-piperazinyl]pregna-4,9(11)-diene-3,20-dione dihydrochloride hydrate], for which, in the test with chick embryo, the “% of Embryos with 4 mm or Greater Avascular Zone” value was 91%. In addition, in the test on mucous secretion, the “inhibition of mucous secretion” value was “demonstrate such activity”. The anti-ulcer activity entry in test [2] is given as “demonstrates anti-ulcer activity”.

Consider `CCN(CC)c1nc(N2CCCCC2)cc(N2CCN(CC(=O)[C@@]3(O)CC[C@H]4[C@@H]5CCC6=CC(=O)CC[C@]6(C)C5=CC[C@@]43C)CC2)n1.Cl.O` [Example 17], for which the “% of Control LD₅₀ 100mg/kg” value with arachidonic acid (100mg/kg, LD50 of sodium arachidonate, IV) is reported as 150%. Moreover, in the test on ACAT, the “% Inhibition of ACAT (5 »g/ml)” value is reported as 32.2% and the “inhibiting ACAT” value is “active in inhibiting ACAT”. The “inhibition of MDA formation” value with rat brain synaptosomes [3] was “demonstrate such activity by inhibition of MDA formation”.

On to `CCN(CC)c1cc(N2CCN(CC(=O)[C@@]3(O)[C@H](C)C[C@H]4[C@@H]5CCC6=CC(=O)C=C[C@]6(C)C5=CC[C@@]43C)CC2)nc(N(CC)CC)n1.Cl.O` [Example 18, 21-[4-[2,6-Bis(diethylamino)-4-pyrimidinyl]-1-piperazinyl]-17α-hydroxy-16α-methylpregna-1,4,9(11)-triene-3,20-dione hydrochloride hydrate], for which, in the test on ACAT, the “% Inhibition of ACAT (5 »g/ml)” value is 48.4% and the “inhibiting ACAT” value is on record as “active in inhibiting ACAT”. Besides, the “% Increase in 1 hr Post-Injury Grip Test Scores After 3 mg/kg” value in the test with mouse head injury turned out to be 112.6%.

On to `CS(=O)(=O)O.CS(=O)(=O)O.C[C@@H]1C[C@H]2[C@@H]3CCC4=CC(=O)C=C[C@]4(C)C3=CC[C@]2(C)[C@H]1C(=O)CN1CCN(c2cc(N3CCCC3)nc(N3CCCC3)n2)CC1` [Example 83, 16α-Methyl-21-[4-[2,6-bis(pyrrolidino)-4-pyrimidyl]-1-piperazinyl]pregna-1,4,9(11)-triene-3,20-dione dimethane-sulfonate], for which the “inhibition of MDA formation” value in the test with rat brain synaptosomes [3] was “demonstrate such activity by inhibition of MDA formation”. Besides, the “inhibition of conjugated diene formation” value in the test with rat brain synaptosomes [1] is recorded as “demonstrate such activity by inhibition of conjugated dienes”. Further, in the test with mucous secretion, the “inhibition of mucous secretion” value was “preferred mucous inhibitors”. Besides, in the test on mouse head injury, the “% Increase in 1 hr Post-Injury Grip Test Scores After 3 mg/kg” value is on record as 134.5%. In addition, the “% Inhibition at 10⁻⁶ M” value in the test on interleukin-1 stood at 62%.

`C[C@@H]1C[C@H]2[C@@H]3CCC4=CC(=O)C=C[C@]4(C)C3=CC[C@]2(C)[C@H]1C(=O)CN1CCN(c2cc(N3CCOCC3)nc(N3CCOCC3)n2)CC1` [Example 86]: in the test with rat brain synaptosomes [3], the “inhibition of MDA formation” value is given as “demonstrate such activity by inhibition of MDA formation”. In addition, the “inhibition of conjugated diene formation” value in the test on rat brain synaptosomes [1] is recorded as “demonstrate such activity by inhibition of conjugated dienes”. The “% Inhibition at 10⁻⁶ M” value in the test with interleukin-1 amounted to 84%.

In the case of `C[C@]12CCC(=O)C=C1CC[C@@H]1C2=CC[C@@]2(C)[C@H]1CC[C@]2(O)C(=O)CN1CCN(c2cc(N3CCOCC3)nc(N3CCOCC3)n2)CC1.Cl.Cl.O` [Example 105, 21-[4-(2,6-Bis(4-morpholinyl)-4-pyrimidinyl)-1-piperazinyl]-17α-hydroxypregna-4,9(11)-diene-3,20-dione dihydrochloride, hydrate], the “inhibition of mucous secretion” value in the test with mucous secretion (dihydrochloride, hydrate) is given as “preferred mucous inhibitors”. The “% Inhibition at 10⁻⁶ M” value in the test with interleukin-1 is recorded as 76%.

Take `CCN(CC)c1ccc(N2CCN(CC(=O)[C@H]3CC[C@H]4[C@@H]5CCC6=CC(=O)C=C[C@]6(C)[C@H]5CC[C@]34C)CC2)nc1N(CC)CC.Cl.Cl` [Example 120]: the “inhibition of MDA formation” value with rat brain synaptosomes [3] is given as “demonstrate such activity by inhibition of MDA formation”. Also, in the test with interleukin-1, the “% Inhibition at 10⁻⁶ M” value is on record as 56%. Further, in the test on interleukin-1 (active = inhibits the activity of interleukin 1 greater than 30% at 10⁻⁶ M), the “inhibition of interleukin 1” value was “demonstrate inhibition of interleukin 1”.
